Key:
[1] = tested on: HEK293sieSTAT3(Y640F); test: drug sensitivity score (DSS), cytotoxicity CellTox Green (DSS (dimensionless)); higher = more cytotoxic; extreme values may be limits of the assay; details: 72 h; STAT3 variant: Y640F (constitutively active)
Method in brief: (§1)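 HEK293 cells with a STAT3-dependent luciferase reporter, overexpressing either wild-type or mutant STAT3, were dispensed (20 μl at 100,000 cells/ml) into 384-well plates holding compounds acoustically pre-plated at 5 concentrations in 10-fold dilutions. The plates were kept for 72 hours at 37°C and 5% CO2, then CellTox Green fluorescence (485/520 nm) followed by CellTiter-Glo luminescence was read on a PHERAstar FS. Breeze was used to compute a drug sensitivity score from the dose-response curve area after normalisation to negative and positive control wells, and each value comes from one representative of two experiments.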

[2] = tested on: HEK293sieSTAT3(wt); test: as above; details: 72 h; STAT3 variant: wild type
Method in brief: as §1

[3] = tested on: HEK293sieSTAT3(Y640F); test: drug sensitivity score (DSS), viability CellTiter-Glo (DSS (dimensionless)); higher = more growth inhibition; extreme values may be limits of the assay; details: 72 h; STAT3 variant: Y640F (constitutively active)
Method in brief: as §1

[4] = tested on: HEK293sieSTAT3(wt); test: as above; details: 72 h; STAT3 variant: wild type
Method in brief: as §1

Structure (SMILES) | drug sensitivity score [1] | drug sensitivity score [2] | drug sensitivity score [3] | drug sensitivity score [4]
NS(=O)(=O)OC[C@@H]1C[C@@H](n2ccc3c(N[C@H]4CCc5ccccc54)ncnc32)C[C@@H]1O [Pevonedistat] (top concentration tested 10000 nM) | 3.23 | 7.13 | 22.3 | 23.6
FC(F)(F)c1ccc(CNc2ccc(Cc3c[nH]c4ncc(Cl)cc34)cn2)cn1 [Pexidartinib] (top concentration tested 10000 nM) | 0 | 0 | 3.45 | 2.35
CS(=O)(=O)N1CCN(Cc2cc3nc(-c4cccc5[nH]ncc45)nc(N4CCOCC4)c3s2)CC1 [Pictilisib] (top concentration tested 10000 nM) | 1.36 | 7.57 | 12.7 | 15.7
COc1ccc(Cl)c(Nc2nc3ccccc3nc2NS(=O)(=O)c2cccc(NC(=O)C(C)(C)N)c2)c1 [Pilaralisib] (top concentration tested 2500 nM) | 0 | 0 | 6.22 | 3.92
CC[C@@H]1C(=O)OC[C@@H]1Cc1cncn1C [Pilocarpine] (top concentration tested 40000 nM) | 0 | 0 | 0.59 | 1.32
O=C(NC[C@H](O)CO)c1ccncc1Nc1ccc(I)cc1F [Pimasertib] (top concentration tested 10000 nM) | 0 | 0 | 0.57 | 0
CC(C)N(C[C@H]1O[C@@H](n2cnc3c(N)ncnc32)[C@H](O)[C@@H]1O)[C@H]1C[C@@H](CCc2nc3cc(C(C)(C)C)ccc3[nH]2)C1 [Pinometostat] (top concentration tested 1000 nM) | 0.46 | 0 | 0.69 | 0
O=C(CCBr)N1CCN(C(=O)CCBr)CC1 [Pipobroman] (top concentration tested 10000 nM) | 0 | 0 | 6.86 | 1.43
NCCNc1ccc(NCCN)c2c1C(=O)c1ccncc1C2=O [Pixantrone] (top concentration tested 10000 nM) | 0 | 0 | 1.82 | 0
c1cc(CN2CCCNCCNCCCNCC2)ccc1CN1CCCNCCNCCCNCC1 [Plerixafor] (top concentration tested 10000 nM) | 0 | 0.25 | 0 | 0
CO[C@H](C(=O)[C@@H](O)[C@@H](C)O)[C@@H]1Cc2cc3cc(O[C@H]4C[C@@H](O[C@@H]5C[C@@H](O)[C@H](O)[C@@H](C)O5)[C@H](O)[C@@H](C)O4)c(C)c(O)c3c(O)c2C(=O)[C@H]1O[C@H]1C[C@@H](O[C@@H]2C[C@@H](O)[C@@H](O[C@@H]3C[C@](C)(O)[C@H](O)[C@@H](C)O3)[C@@H](C)O2)[C@H](O)[C@@H](C)O1 [Plicamycin] (top concentration tested 10000 nM) | 6.46 | 7.29 | 17.8 | 18.7
Nc1cccc2c1C(=O)N(C1CCC(=O)NC1=O)C2=O (stereo not drawn) [Pomalidomide] (top concentration tested 10000 nM) | 0 | 0 | 0 | 0
C=CC(=O)N1CCC(Oc2cc3c(Nc4ccc(Cl)c(Cl)c4F)ncnc3cc2OC)CC1 [Poziotinib] (top concentration tested 1000 nM) | 0 | 0 | 1.53 | 0
CCCCc1nc2cc(/C=C/C(=O)NO)ccc2n1CCN(CC)CC [Pracinostat] (top concentration tested 10000 nM) | 9.85 | 14.5 | 20.7 | 22
CC[C@H](C)C(=O)O[C@H]1C[C@H](O)C=C2C=C[C@H](C)[C@H](CC[C@@H](O)C[C@@H](O)CC(=O)O)[C@H]21 [Pravastatin] (top concentration tested 10000 nM) | 0.36 | 0 | 0 | 2.37
C[C@]12C=CC(=O)C=C1CC[C@@H]1[C@@H]2[C@@H](O)C[C@@]2(C)[C@H]1CC[C@]2(O)C(=O)CO [Prednisolone] (top concentration tested 10000 nM) | 0 | 0 | 0 | 0
C[C@]12C=CC(=O)C=C1CC[C@@H]1[C@@H]2C(=O)C[C@@]2(C)[C@H]1CC[C@]2(O)C(=O)CO [Prednisone] (top concentration tested 10000 nM) | 0.59 | 0 | 0.65 | 3.96
COc1cccc(OCCCN)c1-c1cc(Nc2cnc(C#N)cn2)n[nH]1 [Prexasertib] (top concentration tested 10000 nM) | 15.4 | 12.4 | 42.1 | 37
CNNCc1ccc(C(=O)NC(C)C)cc1 [Procarbazine] (top concentration tested 10000 nM) | 0 | 0 | 0 | 0
Cc1cc(-c2ncc(-c3cccnc3)cc2/C=C/c2ccccc2)cnc1-c1cccnc1 [Pyridoclax] (top concentration tested 25000 nM) | 1.38 | 5.06 | 12.2 | 10.1
Cn1cc(CNCC2CCN(c3ncc(C(=O)NO)cn3)CC2)c2ccccc21 [Quisinostat] (top concentration tested 1000 nM) | 6.14 | 7.75 | 16.3 | 17.9

Structure (SMILES) | drug sensitivity score [1] | drug sensitivity score [2] | drug sensitivity score [3] | drug sensitivity score [4]
CC(C)(C)c1cc(NC(=O)Nc2ccc(-c3cn4c(n3)sc3cc(OCCN5CCOCC5)ccc34)cc2)no1 [Quizartinib] (top concentration tested 1000 nM) | 0 | 1.05 | 2.15 | 2.01
Cn1c(Nc2ccc(C(F)(F)F)cc2)nc2cc(Oc3ccnc(-c4ncc(C(F)(F)F)[nH]4)c3)ccc21 [RAF265] (top concentration tested 1000 nM) | 0 | 0.14 | 0 | 0.25
CNC(=O)c1ccc(N2C(=S)N(c3ccc(C#N)c(C(F)(F)F)c3)C(=O)C23CCC3)cc1F [RD162] (top concentration tested 10000 nM) | 0 | 0.2 | 2.62 | 1.68
CCNC(=O)Nc1ccc(-c2nc3c(c(N4CCOC[C@@H]4C)n2)CCN(C2COC2)C3)cc1 [RG-7603] (top concentration tested 2500 nM) | 0 | 0 | 6.22 | 8.47
Nc1cc(F)ccc1NC(=O)/C=C/c1cnn(C/C=C/c2ccccc2)c1 [RGFP966] (top concentration tested 10000 nM) | 0 | 0 | 5.46 | 6.28
Cc1cnc(NC(=O)Nc2cc(Br)c(C)cc2OC[C@@H]2CNCCO2)cn1 [Rabusertib] (top concentration tested 1000 nM) | 0.03 | 1.61 | 5.38 | 5.03
C[C@@H]1C[C@H]2O[C@@H]2/C=C\C=C\C(=O)Cc2c(Cl)c(O)cc(O)c2C(=O)O1 [Radicicol] (top concentration tested 10000 nM) | 7.65 | 14.4 | 19.5 | 25.1
CC(C)(C)Cn1c(N)nc2ccc(-c3[nH]c(C(C)(C)C)nc3-c3ccc(F)cc3)nc21 [Ralimetinib] (top concentration tested 10000 nM) | 0.02 | 0 | 0.9 | 0
O=C(c1ccc(OCCN2CCCCC2)cc1)c1c(-c2ccc(O)cc2)sc2cc(O)ccc12 [Raloxifene] (top concentration tested 10000 nM) | 0 | 6.26 | 3.8 | 5.05
Cc1nc(=O)c2cc(CN(C)c3ccc(C(=O)N[C@@H](CCC(=O)O)C(=O)O)s3)ccc2[nH]1 [Raltitrexed] (top concentration tested 1000 nM) | 0 | 2.49 | 20.1 | 15.1
CNC(=O)c1cc(Oc2ccc(NC(=O)Nc3cc(C(C)(C)C)nn3-c3ccc4ncccc4c3)c(F)c2)ccn1 [Rebastinib] (top concentration tested 1000 nM) | 0 | 1.16 | 0 | 0
COc1cc(F)c(F)c(Nc2ccc(I)cc2F)c1NS(=O)(=O)C1(C[C@H](O)CO)CC1 [Refametinib] (top concentration tested 10000 nM) | 0 | 0 | 2.4 | 1.58
CNC(=O)c1cc(Oc2ccc(NC(=O)Nc3ccc(Cl)c(C(F)(F)F)c3)c(F)c2)ccn1 [Regorafenib] (top concentration tested 10000 nM) | 0 | 0 | 6.11 | 6.43
CN(C)Cc1ccc(S(=O)(=O)n2ccc(/C=C/C(=O)NO)c2)cc1 [Resminostat] (top concentration tested 10000 nM) | 5.95 | 6.75 | 11.5 | 12.3
CN(C)C(=O)c1cc2cnc(Nc3ccc(N4CCNCC4)cn3)nc2n1C1CCCC1 [Ribociclib] (top concentration tested 10000 nM) | 0.06 | 2.66 | 4.33 | 5.65
CO[C@H]1C[C@@H]2CC[C@@H](C)[C@@](O)(O2)C(=O)C(=O)N2CCCC[C@H]2C(=O)O[C@H]([C@H](C)C[C@@H]2CC[C@@H](OP(C)(C)=O)[C@H](OC)C2)CC(=O)[C@H](C)/C=C(\C)[C@@H](O)[C@@H](OC)C(=O)[C@H](C)C[C@H](C)/C=C/C=C/C=C/1C [Ridaforolimus] (top concentration tested 100 nM) | 0 | 0 | 8.94 | 13.9
COc1cc(OC)c(/C=C/S(=O)(=O)Cc2ccc(OC)c(NCC(=O)O)c2)c(OC)c1 [Rigosertib] (top concentration tested 10000 nM) | 6.71 | 18.7 | 21.8 | 21.9
C=CC(=O)Nc1cccc(Nc2nc(Nc3ccc(N4CCN(C(C)=O)CC4)cc3OC)ncc2C(F)(F)F)c1 [Rociletinib] (top concentration tested 10000 nM) | 0.23 | 4.1 | 8.18 | 7.99
O=C(CCCCCCNC(=O)c1cnc(N(c2ccccc2)c2ccccc2)nc1)NO [Rocilinostat] (top concentration tested 10000 nM) | 1.02 | 0.53 | 8 | 6.92
CS(=O)(=O)c1ccc(C2=C(c3ccccc3)C(=O)OC2)cc1 [Rofecoxib] (top concentration tested 10000 nM) | 0 | 0 | 0 | 0
C/C=C1\NC(=O)[C@H]2CSSCC/C=C/[C@H](CC(=O)N[C@H](C(C)C)C(=O)N2)OC(=O)[C@H](C(C)C)NC1=O [Romidepsin] (top concentration tested 1000 nM) | 23.6 | 29.9 | 32.4 | 29.5

Source: the supplement of paper PMC7108870
